The record followed here is patent US6716436B1, “Cosmetic composition for slimming containing L-arginine, an L-arginine analogue, or one of their derivatives, for topical application” (Exsymol S.A.M., priority 1999, dated 2004).

The test system of one data set is rats ZUCKER fa/fa. Nature of the data set: Test in vivo on rats (weight and measurement over 5 weeks). Conditions: group II ionisation every two days. From the text: Three groups of 4 rats ZUCKER fa/fa defined in an homogeneous way were placed in the animal house at 8 weeks. The experiment begins when the rats have reached 9 weeks and similar weights (240±15 g); they are placed in individual cage with water and food ad libidum. The whole of the rats are circularly hair removed on median part in order to tattoo an axis between the neck and the tail. On a group N^o I, the emulsion described in example 1 is daily applied on the hair-removed part until absorption with removing the excess. […] A third group is used as the control (group C). These experiments are carried out during 5 weeks.

Data set [1] can be described thus: Comparative study of cutaneous diffusion (diffusion cell). To be noted: solution at 30 mM, 0.2 ml by cm^2 on hairless rat skin; L-arginine dosed by HPLC in dialysate.
Experimental: (§1) Hairless rats are sacrified by intra-cardiac injection of pentobarbital; the ventral skin is recollected and hypodermis is removed with a scalpel. 0.2 ml by cm^2 of the solution to be tested are dropped on a piece of skin (dermis and epidermis) which is set on a diffusion cell. The diffusion is tested in comparison with phosphate buffer containing 0.5% of tween 20.
(§2) At different times, the phosphate buffer is replaced and L-arginine is dosed by HPLC in the recollected dialysate fractions.
Data set [2] concerns Segments of perirenal adipose tissue. Nature of the data set: Lipolytic activity in vitro (glycerol liberation). In kind it is cell-based, male rabbits. Conditions: rabbit perirenal adipose tissue, 37° C. The procedure: The in vitro lipolytic activity of solutions containing compounds according to the invention is tested (Solutions at 4%).
Segments of perirenal adipose tissue of male rabbits are incubed in a Krebs-Ringer bicarbonate buffer pH 7.4, which contains 5,5 mM glucose, 40 mg/ml of bovin albumin serum. The total volume of incubation is 3 ml with the substance to be tested prepared in 0.01 M of NH4HCO3 and additionned in a volume of 0.1 ml. The preparations are stirred at 37° C., under a 95% O2, 5% CO2 atmosphere.
The lipolytic activity levels are quantified by glycerol liberation in the incubation medium and are expressed by gramme of lipid. The glycerol is dosed in duplicate by enzymatic method: glycerokinase, glycerophosphate deshydrogenase (Boerhinger-Mannheim), method of Wieland (32), modified by Vaughan (33).

For data set [3] the following is noted: hairless, rat, 30 mM.
Experimental: as §1, §2

Molecules are shown by their SMILES. Where two headings read alike, the source gives them in different places.

As to `N=C(N)NCCC[C@H](N)C(=O)O.O=C(O)c1ccccc1O` [Group II, arginium salicylate], the Meas in the data set with rats ZUCKER fa/fa (Week 1, group I daily topical) was found to be 189.75 mm; in the data set on rats ZUCKER fa/fa (Week 2, group I daily topical), 213.25 mm; with rats ZUCKER fa/fa (Week 3, group I daily topical), 224.25 mm; in the data set on rats ZUCKER fa/fa (Week 4, group I daily topical), 233.25 mm; with rats ZUCKER fa/fa (Week 5, group I daily topical), 238.5 mm. In the data set on rats ZUCKER fa/fa (Week 1, group I daily topical), this compound gave a Weight of 280.25 g. Further, the Weights in the data set on rats ZUCKER fa/fa (Week 2, group I daily topical) is 318.25 g; in the data set with rats ZUCKER fa/fa (Week 3, group I daily topical) it was 345.5 g; in the data set on rats ZUCKER fa/fa (Week 4, group I daily topical), 367.25 g; in the data set with rats ZUCKER fa/fa (Week 5, group I daily topical), 386.25 g.

Regarding `CC(C)(C)C(=O)OCOC(=O)[C@@H](N)CCCNC(=N)N` [L-arginylpivalloyoxymethylester], the “% of diffusion after 5h” value in data set [1] is given as 51%.

On to `C[Si](O)(O)OC(=O)C(N)CCCNC(=N)N` [Monomethylsilanediol of L-arginine], for which the Glycerol in data set [2] (15 mg/L) was 1 ± 0.5 nmoles/g of lipids; in data set [2] (30 mg/L), 2.40 ± 0.35 nmoles/g of lipids; in data set [2] (45 mg/L), 2.5 ± 0.35 nmoles/g of lipids. For the same compound, the “% of diffusion after 5h” value in data set [3] was determined as 42%.
